Data as given in patent publication US12686687B2, “Compounds and uses thereof” (Foghorn Therapeutics Inc., priority 2019, dated 2026).
Like-named read-outs stand apart in the source and are kept apart here.

Biological target: T1, Nanoluciferase-BRD9 fusion protein (3×FLAG-NLuc-BRD9) in SYO-1 cells (Homo sapiens, UniProt Q9H8M2)
T1 construct: expressed in transfected cells; host or cells: SYO-1
T1 sequence (Q9H8M2 1-597): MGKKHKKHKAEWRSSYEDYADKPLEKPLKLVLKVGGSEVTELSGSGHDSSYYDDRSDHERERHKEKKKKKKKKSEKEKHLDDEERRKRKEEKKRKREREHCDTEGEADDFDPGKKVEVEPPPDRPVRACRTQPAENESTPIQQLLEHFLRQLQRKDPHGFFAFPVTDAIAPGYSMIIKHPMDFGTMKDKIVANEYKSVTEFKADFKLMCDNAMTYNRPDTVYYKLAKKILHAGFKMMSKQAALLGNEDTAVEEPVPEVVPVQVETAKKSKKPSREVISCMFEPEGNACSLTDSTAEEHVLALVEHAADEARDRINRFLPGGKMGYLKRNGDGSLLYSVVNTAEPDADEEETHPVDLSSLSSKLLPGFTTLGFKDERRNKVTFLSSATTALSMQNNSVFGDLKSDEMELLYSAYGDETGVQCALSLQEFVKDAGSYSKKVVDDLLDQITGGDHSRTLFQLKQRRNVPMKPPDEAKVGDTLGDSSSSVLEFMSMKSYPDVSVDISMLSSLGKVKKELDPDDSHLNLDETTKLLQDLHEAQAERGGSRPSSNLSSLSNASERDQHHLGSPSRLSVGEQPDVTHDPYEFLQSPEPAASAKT
Experiment: SYO1 BRD9 NanoLuc degradation assay
Format: cell-based
Conditions: SYO-1 cells expressing 3×FLAG-NLuc-BRD9, 6 hours incubation, 1 μM top dose, read-out: SYO1 BRD9-NanoLuc degradation IC50
Protocol: Procedure: A stable SYO-1 cell line expressing 3×FLAG-NLuc-BRD9 was generated. On day 0 cells were seeded in 30 μL media into each well of 384-well cell culture plates. The seeding density was 8000 cells/well. On day 1, cells were treated with 30 nL DMSO or 30 nL of 3-fold serially DMSO-diluted compounds (10 points in duplicates with 1 μM as final top dose). Subsequently plates were incubated for 6 hours in a standard tissue culture incubator and equilibrated at room temperature for 15 minutes. Nanoluciferase activity was measured by adding 15 μL of freshly prepared Nano-Glo Luciferase Assay Reagent (Promega N1130), shaking the plates for 10 minutes and reading the bioluminescence using an EnVision reader. • Results: The Inhibition % was calculated using the following formula: % Inhibition=100×(LumHC−LumSample)/(LumHC−LumLC). DMSO treated cells are employed as High Control (HC) and 1 μM of a known BRD9 degrader standard treated cells are employed as Low Control (LC).

Compound	DC50 (Table 6C) [nM]	DC50 (Table 6B) [nM]
COc1cc(-c2cn(C)c(=O)c3ccsc23)cc(OC)c1CN1CCC2(CC1)CN(c1ccc3c(c1)C(=O)N(C1CCC(=O)N(COC(=O)[C@@H](N)C(C)C)C1=O)C3=O)C2 (stereo partly shown) [Compound D107]	< 10	–
COc1cc(Cl)cc(-c2cn(C)c(=O)c3cc(C(=O)NC4CCN(c5ccc6c(c5)C(=O)N(C5CCC(=O)NC5=O)C6)CC4)sc23)c1 (stereo not shown) [Compound D93]	< 10	–
COc1cc(-c2cn(C)c(=O)c3cc(C(=O)NC4CCN(c5cccc(CN6CCC(=O)NC6=O)c5)CC4)sc23)cc(OC)c1CN(C)C [Compound D124]	< 10	–
COc1cc(-c2cn(C)c(=O)c3cc(C(=O)NC4CCN(C5CC6(C5)CN(c5ccc7c(c5)C(=O)N(C5CCC(=O)NC5=O)C7)C6)CC4(F)F)sc23)cc(OC)c1CN(C)C (stereo not shown) [Compound D145]	> 100	–
COc1cc(-c2cn(C)c(=O)c3ccsc23)cc(OC)c1CN1CCC2(CC1)CN(c1ccc3c(c1)C(=O)N(C1CCC(=O)NC1=O)C3=O)C2 (stereo not shown) [Compound D183]	< 10	–
COc1cc(-c2cn(C)c(=O)c3occc23)cc(OC)c1CN1CC(CN2CCC3(CC2)CN(c2ccc4c(c2)C(=O)N(C2CCC(=O)NC2=O)C4)C3)C1 (stereo not shown) [Compound D21]	–	< 10
COc1cc(-c2cn(C)c(=O)c3cc(C(=O)NC4CCC(N(C)CCCCOc5cccc6c5C(=O)N(C5CCC(=O)NC5=O)C6=O)CC4)sc23)cc(OC)c1CN(C)C (stereo not shown) [Compound D80]	–	> 100
COc1cc(-c2cn(C)c(=O)c3cc(C#N)sc23)cc(OC)c1CN1CC(C#Cc2ccc3c(c2)C(=O)N(C2CCC(=O)NC2=O)C3)C1 (stereo not shown) [Compound D91]	< 10	–
COc1cc(-c2cn(C)c(=O)c3ccsc23)cc(OC)c1CN1CC(Oc2ccc3c(c2)C(=O)N(C2CCC(=O)NC2=O)C3=O)C1 (stereo not shown) [Compound D169]	< 10	–
COc1cc2c(=O)n(C)cc(-c3cc(OC)c(CN4CCC5(CC4)CN(c4ccc6c(c4)C(=O)N(C4CCC(=O)NC4=O)C6)C5)c(OC)c3)c2s1 (stereo not shown) [Compound D120]	< 10	–
COc1cc(-c2cn(C)c(=O)c3ccsc23)cc(OC)c1CN1CCC(CN2CCC3(CC2)CN(c2ccc4c(c2)C(=O)N(C2CCC(=O)NC2=O)C4)C3)CC1 (stereo not shown) [Compound D99]	< 10	–
COc1cc(-c2cn(C)c(=O)c3cc(NC4CCN(C(=O)CCCCOc5ccc6c(c5)C(=O)N(C5CCC(=O)NC5=O)C6=O)CC4)sc23)cc(OC)c1CN(C)C (stereo not shown) [Compound D71]	–	> 10
COc1cc(-c2cn(C)c(=O)c3nc(C)sc23)cc(OC)c1CN1CCC2(CC1)CN(c1ccc3c(c1)C(=O)N(C1CCC(=O)NC1=O)C3)C2 (stereo not shown) [Compound D214]	< 10	–
COc1cc(-c2cn(C)c(=O)c3cc(N4CCC4)sc23)cc(OC)c1CN1CCC(CCN2CCN(c3ccc4c(c3)C(=O)N(C3CCC(=O)NC3=O)C4)CC2)CC1 (stereo not shown) [Compound D94]	< 10	–
COc1cc(-c2cn(C)c(=O)c3cc(C(=O)NC4CCN(C)CC4(F)F)sc23)cc(OC)c1CN1CCN(c2ccc3c(c2)CN(C2CCC(=O)NC2=O)C3=O)CC1 (stereo not shown) [Compound D22]	–	< 10
COc1cc(OC)cc(-c2cn(C)c(=O)c3cc(C(=O)NC4CCN(c5ccc6c(c5)C(=O)N(C5CCC(=O)NC5=O)C6)CC4)oc23)c1 (stereo not shown) [Compound D219]	< 10	–
COc1cc(-c2cn(C)c(=O)c3cc(C(=O)N[C@H]4CCN(c5ccc6c(c5)C(=O)N(C5CCC(=O)NC5=O)C6)CC4(F)F)sc23)cc(OC)c1CN(C)C (stereo partly shown) [Compound D152]	< 10	–

The remaining lines, values ahead:

DC50 (Table 6C) [nM]	DC50 (Table 6B) [nM]	Compound
< 10	–	COc1cc(-c2cn(C)c(=O)c3cc(C(=O)NC4CN(C5CCN(c6ccc7c(c6)C(=O)N(C6CCC(=O)NC6=O)C7=O)CC5)CC4(F)F)sc23)cc(OC)c1CN(C)C (stereo not shown) [Compound D187]
–	> 100	COc1cc(-c2cn(C)c(=O)c3cc(C(=O)NCC4CCN(CCCCOc5cccc6c5C(=O)N(C5CCC(=O)NC5=O)C6=O)CC4)sc23)cc(OC)c1CN(C)C (stereo not shown) [Compound D81]
–	> 10	COc1cc(-c2cn(C)c(=O)c3cc(C(=O)NC4CCC5CN(C(=O)CCN6CCN(c7ccc8c(c7)C(=O)N(C7CCC(=O)NC7=O)C8=O)CC6)CC54)sc23)cc(OC)c1CN(C)C (stereo not shown) [Compound D58]
–	< 10	COc1cc(-c2cn(C)c(=O)c3cc(C(=O)NC4CCN(CCCN5CCN(c6ccc7c(c6)C(=O)N(C6CCC(=O)NC6=O)C7=O)CC5)CC4(F)F)sc23)cc(OC)c1CN(C)C (stereo not shown) [Compound D60]
–	< 10	COc1cc(-c2cn(C)c(=O)c3cc(C(=O)NC4CC5(CCN(CCCN6CCN(c7ccc8c(c7)C(=O)N(C7CCC(=O)NC7=O)C8=O)CC6)C5)C4)sc23)cc(OC)c1CN(C)C (stereo not shown) [Compound D73]
–	> 100	COc1cc(-c2cn(C)c(=O)c3cc(C(=O)NC4C[C@@H]5CN(C(=O)CCN6CCN(c7ccc8c(c7)C(=O)N(C7CCC(=O)NC7=O)C8=O)CC6)C[C@H]45)sc23)cc(OC)c1CN(C)C (stereo partly shown) [Compound D63]
–	< 10	COc1cc(-c2cn(C)c(=O)c3cc(C(=O)NCC4CC5(CCN(CCCN6CCN(c7ccc8c(c7)C(=O)N(C7CCC(=O)NC7=O)C8=O)CC6)CC5)CO4)sc23)cc(OC)c1CN(C)C (stereo not shown) [Compound D49]
–	> 10	COc1cc(-c2cn(C)c(=O)c3cc(C(=O)NCC4CC5(CCN(CCN6CCN(c7ccc8c(c7)C(=O)N(C7CCC(=O)NC7=O)C8=O)CC6)CC5)O4)sc23)cc(OC)c1CN(C)C (stereo not shown) [Compound D62]
–	> 10	COc1cc(-c2cn(C)c(=O)c3cc(C(=O)NC4CCC5(CCN(C(=O)CCN6CCN(c7ccc8c(c7)C(=O)N(C7CCC(=O)NC7=O)C8=O)CC6)C5)C4)sc23)cc(OC)c1CN(C)C (stereo not shown) [Compound D47]
–	< 10	COc1cc(-c2cn(C)c(=O)c3cc(C(=O)NC4CCN(CCCCCOc5ccc6c(c5)C(=O)N(C5CCC(=O)NC5=O)C6=O)CC4F)sc23)cc(OC)c1CN(C)C (stereo not shown) [Compound D85]
< 10	–	COc1cc(-c2cn(C)c(=O)c3cc(C(=O)N[C@H]4CCN(C5CCN(c6ccc7c(c6)C(=O)N(C6CCC(=O)NC6=O)C7)CC5)CC4(F)F)sc23)cc(OC)c1CN(C)C (stereo partly shown) [Compound D167]
–	< 10	COc1cc(-c2cn(C)c(=O)c3cc(C(=O)NCC4CC5(CCN(CCN6CCN(c7ccc8c(c7)C(=O)N(C7CCC(=O)NC7=O)C8=O)CC6)CC5)C4)sc23)cc(OC)c1CN(C)C (stereo not shown) [Compound D36]
–	< 10	COc1cc(-c2cn(C)c(=O)c3cc(C(=O)NCC4CC5CN(CCN6CCN(c7ccc8c(c7)C(=O)N(C7CCC(=O)NC7=O)C8=O)CC6)CC5C4)sc23)cc(OC)c1CN(C)C (stereo not shown) [Compound D43]
–	< 10	COc1cc(-c2cn(C)c(=O)c3cc(C(=O)NC4CCN(CCCCCOc5cccc6c5C(=O)N(C5CCC(=O)NC5=O)C6=O)CC4F)sc23)cc(OC)c1CN(C)C (stereo not shown) [Compound D84]
–	> 100	COc1cc(-c2cn(C)c(=O)c3cc(C(=O)NCC4CC5CN(C(=O)CCN6CCN(c7ccc8c(c7)C(=O)N(C7CCC(=O)NC7=O)C8=O)CC6)CC5C4)sc23)cc(OC)c1CN(C)C (stereo not shown) [Compound D34]
< 10	–	COc1cc(-c2cn(C)c(=O)c3cc(C(=O)NC4CCN(C5CN(c6ccc7c(c6)C(=O)N(C6CCC(=O)NC6=O)C7=O)C5)CC4(F)F)sc23)cc(OC)c1CN(C)C (stereo not shown) [Compound D191]
–	< 10	COc1cc(-c2cn(C)c(=O)c3cc(C(=O)NC4CC5(CCN(C(=O)CCN6CCN(c7ccc8c(c7)C(=O)N(C7CCC(=O)NC7=O)C8=O)CC6)C5)C4)sc23)cc(OC)c1CN(C)C (stereo not shown) [Compound D72]
< 10	–	COc1cc(-c2cn(C)c(=O)c3cc(C(=O)NC4CCN(CCN5CCC(c6ccc7c(c6)CN(C6CCC(=O)NC6=O)C7=O)CC5)CC4(F)F)sc23)cc(OC)c1CN(C)C (stereo not shown) [Compound D195]
–	< 10	COc1cc(-c2cn(C)c(=O)c3cc(C(=O)NCC4CC45CCN(CCN4CCN(c6ccc7c(c6)C(=O)N(C6CCC(=O)NC6=O)C7=O)CC4)CC5)sc23)cc(OC)c1CN(C)C (stereo not shown) [Compound D57]
–	> 1000	COc1cc(-c2cn(C)c(=O)c3cc(C(=O)NC4CCN(C(=O)CN5CCC6(C5)CN(c5ccc7c(c5)C(=O)N(C5CCC(=O)NC5=O)C7=O)C6)CC4(F)F)sc23)cc(OC)c1CN(C)C (stereo not shown) [Compound D45]
–	< 10	COc1cc(-c2cn(C)c(=O)c3cc(C(=O)NC4CCC5CN(CCCN6CCN(c7ccc8c(c7)C(=O)N(C7CCC(=O)NC7=O)C8=O)CC6)CC54)sc23)cc(OC)c1CN(C)C (stereo not shown) [Compound D37]
–	> 100	COc1cc(-c2cn(C)c(=O)c3cc(C(=O)NC4CC5CC4CN5CCCCCOc4cccc5c4C(=O)N(C4CCC(=O)NC4=O)C5=O)sc23)cc(OC)c1CN(C)C (stereo not shown) [Compound D82]
–	> 100	COc1cc(-c2cn(C)c(=O)c3cc(C(=O)NC4CCC45CCN(CCCN4CCN(c6ccc7c(c6)C(=O)N(C6CCC(=O)NC6=O)C7=O)CC4)CC5)sc23)cc(OC)c1CN(C)C (stereo not shown) [Compound D55]
